How the values were obtained:
[1] = molecular target: human NCX1 (Homo sapiens, UniProt P32418); settings: 5 mM nickel
Experimental: (§1) The cultured cells were detached by application of iced PBS (phosphate buffered saline) or Trypsin at least 18 hours prior to electrophysiological experiments and replated on cover slips.
(§2) Two bath solutions and pipette solutions were prepared for patch clamp experiments with the following composition:
(§3) 135 mM NMG, 5 mM MgCl2, 2 mM CaCl2, 4 mM EGTA, 30 mM HEPES, pH 7.4
(§4) 139 mM NMG, 5 mM MgCl2, 2 mM CaCl2, 30 mM HEPES, pH 7.4
(§5) 100 mM NaCl, 5 mM KCl, 2 mM CaCl2, 2 mM MgCl2, 2.1 mM EGTA, 35 mM TEA-Cl, 4 mM Mg-ATP, 0.5 mM Na-GTP,
(§6) 5.63 mM Phosphocreatine, 30 mM HEPES, […] Creatine Phosphokinase (70 ml pipette solution+3500 U filtered Creatine Phosphokinase, ad 100 ml pipette solution), pH 7.4 (NaOH)
(§7) To inhibit NCX currents, 5 mM nickel chloride was dissolved in bath solution “high calcium”. NCX activity was measured using the patch clamp technique in the whole cell configuration. The cells were clamped at room temperature (20-25° C.) to a holding potential of 0 mV. NCX currents were evoked by application of 2 mM external calcium (bathsolution “high calcium”) for 4 seconds (=control). Calcium application was repeated every 20 s. After 5 stimulations, inhibition by nickel was tested using the same protocol but activation with calcium in the presence of 5 mM nickel (5 replicates). Finally, 5 calcium pulses were applied again for washout studies. To characterize NCX currents, peak currents, transported charge and the time constant of signal decay were investigated and analyzed according to the report. All data are presented as mean±SEM.

[2] = molecular target: human NCX2 (Homo sapiens, UniProt Q9UPR5)
Experimental: as §1, §2, §3, §4, §5, §6, §7

[3] = molecular target: human NCX3 (Homo sapiens, UniProt P57103)
Experimental: as §1, §2, §3, §4, §5, §6, §7

[4] = after 5 mM nickel, 5 calcium pulses for washout

Sequence of human NCX2 (Q9UPR5 21-921): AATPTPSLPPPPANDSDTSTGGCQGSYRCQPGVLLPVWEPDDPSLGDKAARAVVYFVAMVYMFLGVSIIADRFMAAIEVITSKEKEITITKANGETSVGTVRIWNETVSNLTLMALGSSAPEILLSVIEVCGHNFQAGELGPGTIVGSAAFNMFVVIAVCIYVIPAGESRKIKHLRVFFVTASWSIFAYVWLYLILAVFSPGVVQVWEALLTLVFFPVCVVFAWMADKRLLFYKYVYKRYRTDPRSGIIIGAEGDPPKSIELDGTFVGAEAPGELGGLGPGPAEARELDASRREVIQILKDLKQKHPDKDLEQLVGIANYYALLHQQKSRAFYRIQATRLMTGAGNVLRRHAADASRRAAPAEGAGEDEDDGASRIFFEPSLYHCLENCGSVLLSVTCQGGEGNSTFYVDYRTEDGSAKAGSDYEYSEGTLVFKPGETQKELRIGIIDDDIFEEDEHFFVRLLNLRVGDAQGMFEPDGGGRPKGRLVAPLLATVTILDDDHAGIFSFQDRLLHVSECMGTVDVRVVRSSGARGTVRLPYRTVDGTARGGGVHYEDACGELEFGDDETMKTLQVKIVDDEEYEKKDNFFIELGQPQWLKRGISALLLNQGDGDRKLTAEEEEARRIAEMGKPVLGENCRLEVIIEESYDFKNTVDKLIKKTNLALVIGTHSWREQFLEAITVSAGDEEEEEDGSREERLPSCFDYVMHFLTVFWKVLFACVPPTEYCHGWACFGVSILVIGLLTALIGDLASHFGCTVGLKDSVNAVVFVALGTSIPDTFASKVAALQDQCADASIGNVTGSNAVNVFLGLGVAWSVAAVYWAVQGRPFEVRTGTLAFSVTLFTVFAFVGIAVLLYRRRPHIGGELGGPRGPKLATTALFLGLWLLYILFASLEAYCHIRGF
Sequence of human NCX3 (P57103 31-924 isoform P57103-6 limits assumed): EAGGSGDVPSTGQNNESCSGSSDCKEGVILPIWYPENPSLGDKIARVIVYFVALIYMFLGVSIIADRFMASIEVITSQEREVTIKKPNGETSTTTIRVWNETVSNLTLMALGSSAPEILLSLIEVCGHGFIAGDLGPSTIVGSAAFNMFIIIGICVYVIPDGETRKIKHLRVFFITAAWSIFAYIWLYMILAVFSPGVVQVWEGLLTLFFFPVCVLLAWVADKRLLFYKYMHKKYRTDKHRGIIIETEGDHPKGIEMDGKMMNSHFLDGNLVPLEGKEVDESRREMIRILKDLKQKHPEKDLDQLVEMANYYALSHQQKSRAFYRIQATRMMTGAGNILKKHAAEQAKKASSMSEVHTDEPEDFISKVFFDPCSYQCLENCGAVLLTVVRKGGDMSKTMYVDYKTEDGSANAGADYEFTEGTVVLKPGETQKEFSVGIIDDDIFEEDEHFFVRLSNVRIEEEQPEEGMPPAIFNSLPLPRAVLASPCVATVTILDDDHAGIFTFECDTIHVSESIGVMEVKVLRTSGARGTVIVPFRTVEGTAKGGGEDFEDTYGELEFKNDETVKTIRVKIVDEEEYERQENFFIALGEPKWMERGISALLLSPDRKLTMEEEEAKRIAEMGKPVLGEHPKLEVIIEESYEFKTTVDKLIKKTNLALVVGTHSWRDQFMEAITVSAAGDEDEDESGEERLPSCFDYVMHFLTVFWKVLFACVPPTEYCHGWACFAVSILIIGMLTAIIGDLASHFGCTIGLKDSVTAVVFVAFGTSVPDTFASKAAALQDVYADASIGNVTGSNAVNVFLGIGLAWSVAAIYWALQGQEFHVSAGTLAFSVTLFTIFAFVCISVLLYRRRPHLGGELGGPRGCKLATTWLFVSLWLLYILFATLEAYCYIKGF

[Cl][Ni][Cl] [nickel, nickel chloride]
Block of NCX1 outward currents (in words) [1]: completely and reversible blocked
Block of NCX1 outward currents ([1]; reverse mode, 2 mM external Ca2+, holding potential 0 mV): 91.3±3.3%
Block of NCX2 outward currents (in words) ([2]; 5 mM nickel): completely and reversible blocked
Washout after nickel block, NCX2 currents [2, 4]: 100.2±1.9%
Block of NCX3 outward currents (in words) ([3]; 5 mM nickel): completely and reversible blocked
Washout after nickel block, NCX3 currents [3, 4]: 111.5±2.4%

— US20110124033A1, “FLUORESCENCE BASED ASSAY TO DETECT SODIUM/CALCIUM EXCHANGER (NCX ) "REVERSE MODE" MODULATING COMPOUNDS” (SANOFI-AVENTIS, priority 2008, published 2011)
